This assay deals with T1, DVU0799 (Nitratidesulfovibrio vulgaris, UniProt Q72DY0).
T1 construct: gene DVU_0799; native protein purified from wild-type outer membranes (octyl glucoside), untagged; monomer about 50 kDa, homotrimer; reconstituted in proteoliposomes
T1 sequence (Q72DY0 24-466): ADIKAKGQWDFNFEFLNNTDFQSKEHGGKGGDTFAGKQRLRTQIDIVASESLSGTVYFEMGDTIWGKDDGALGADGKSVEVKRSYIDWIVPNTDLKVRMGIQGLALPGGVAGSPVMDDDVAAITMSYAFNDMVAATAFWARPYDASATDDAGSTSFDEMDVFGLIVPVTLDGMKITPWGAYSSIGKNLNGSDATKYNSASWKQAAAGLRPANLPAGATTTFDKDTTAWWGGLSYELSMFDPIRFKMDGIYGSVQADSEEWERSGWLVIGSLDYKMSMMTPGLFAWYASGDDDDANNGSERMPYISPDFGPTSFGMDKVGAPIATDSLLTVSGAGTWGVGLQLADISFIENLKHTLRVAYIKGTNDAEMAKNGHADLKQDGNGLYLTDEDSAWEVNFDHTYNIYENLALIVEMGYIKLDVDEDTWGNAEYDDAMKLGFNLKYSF
As to the kind of experiment: liposome swelling assay (OD400), reconstituted proteoliposomes. Format: biochemical. The conditions noted are these: pore permeation (passive diffusion).

The values that follow come from paper PMC5686591, “Identification and Characterization of the Major Porin of Desulfovibrio vulgaris Hildenborough” (Journal of Bacteriology, 2017).

Consider `O=C(O)[C@H](O)[C@@H](O)[C@H](O)[C@H](O)CO` [D-gluconate], for which the relative permeability entry (relative to L-arabinose, 9 mM solute, 4 mM sodium NAD, 1 mM imidazole-NAD, pH 6.0) is given as “purified DVU0799 were also surveyed for their permeability to two sugar acids, D-gluconate”. Regarding `OC1OC[C@H](O)[C@H](O)[C@H]1O` (stereo partly drawn) [L-arabinose], the relative permeability result (scaling reference of the assay, about 20 mM solute) is listed as “the permeability profile begins with that for L-arabinose at the upper limit”.
